{
  "source": "patent US10265276B2",
  "about": "“Pharmaceutical composition for preventing or treating arthritis or inflammatory disease containing 2-methoxy-4-(3-(4-methoxyphenyl)propyl-1-en-1-yl)phenol as active ingredient” (CHUNGBUK NATIONAL UNIVERSITY INDUSTRY-ACADEMIC COOPERATION …, priority 2015, dated 2019)",
  "key": {"[1]": {"system": "iNOS", "test": "iNOS-luciferase activity assay in LPS-induced RAW 264.7 cells", "format": "cell-based, mouse", "conditions": "LPS (1 µg/mL) and MMPP (0 to 4 µg/mL)", "protocol": "(§1) 9. Cell infection: RAW 264.7 cells (5×10^4 cells/well) were added to a 24-well plate, and transiently infected with a STAT3-luciferase reporter plasmid and an iNOS-luciferase reporter plasmid using a Lipofectamine PLUS and plasmid mixture in OPTI-MEN.\n(§2) In Experimental Example 4, a luciferase activity assay was carried out to determine whether MMPP inhibited generation of LPS-induced infective factors in RAW 264.7 cells. RAW 264.7 cells were transiently infected with an iNOS-luciferase construct, treated with LPS (1 μg/mL) alone or a combination of MMPP and LPS, and then activated for 12 hours."}, "[2]": {"system": "STAT3", "test": "STAT3-luciferase activity assay in LPS-induced RAW 264.7 cells", "format": "cell-based, mouse", "conditions": "concentration-dependent manner (0 to 4 mg/mL)", "protocol": "as §1\n11. Luciferase activity assay: RAW264.7 cells added to a 24-well plate at a density of 1×10^5 cells/well. After 90% confluence, the cells were transiently infected with STAT3 siRNA (Santa Cruz Biotechnology) or a mutant STAT3 (T456A) plasmid using a mixture of STAT3 siRNA (Santa Cruz Biotechnology) or a mutant STAT3 (T456A) plasmid and WelFect-EX PLUS in OPTI-MEN. […] The luciferase activity was measured using a luciferase assay kit (Promega, Madison, Wis., USA).\n(§3) RAW 264.7 cells were transiently infected with a STAT3-luciferase construct, treated with LPS (1 μg/mL) alone or a combination of MMPP and LPS, and then activated for 12 hours. Thereafter, the luciferase activity, the ROS and PGE2 expression, and a level of pro-inflammatory cytokines were determined."}, "[3]": {"system": "synoviocytes", "test": "Anti-inflammatory effect in LPS- or TNF-α-treated synoviocytes", "format": "cell-based, human", "conditions": "LPS or TNF-α (10 ng/mL), 24 hours", "text": "4. Human synoviocyte culture: The research protocol and human tissue cells used in the study were approved by the College of Medicine of Soon Chun Hyang University Medical Center. Cells were obtained from patients with rheumatoid arthritis diagnosed according to the American College of Rheumatology classification criteria revised in 1987. Synovial tissue samples are obtained from knee joints of patients with long-term rheumatoid arthritis (two males and two females, an average age of 65±21.3 years, and an average onset period of 10 years or more). FLS (Fibroblast-like synoviocytes) were cultured as described above. Simply, the FLSs were cultured in a culture dish (Nalge Nunc International, Rochester, N.Y., USA) containing a DMEM culture medium (Gibco Life Technologies) supplemented with […] FBS (Gibco Life Technologies) and 50 U·mL^−1 penicillin/streptomycin. For all cultures and an incubator, the culture was performed at 37° C. in an incubator under a 5% CO2 atmosphere. The medium was replaced every three days. The cells between 5th and 10th passage were used.\nIn Experimental Example 8, an experiment was performed to check an anti-inflammatory effect of MMPP in synoviocytes treated with LPS and TNF-α.\nIt was confirmed that the LPS […]- or TNF-α (10 ng/mL)-induced NO and ROS generations (FIG. 9(A)), the iNOS and COX2 expression (FIG. 9(B)), and STAT3 and NF-κB activities (FIGS. 9(C) and (D)) were reduced in the synoviocytes in the case of groups in which the […] were treated with LPS […] or TNF-α (10 ng/mL) in combination with MMPP […] for 24 hours."}, "[4]": {"system": "RAW 264.7 cells", "test": "ROS, PGE2 and pro-inflammatory cytokine assays in LPS-induced RAW 264.7 cells", "format": "cell-based, mouse", "conditions": "concentration-dependent manner (0 to 4 mg/mL)", "protocol": "7. PEG2 and cytokine Assays: A PGE2 assay was carried out in the cultured RAW 264.7 cells using an ELISA kit (commercially available from R&D Systems).\n8. ROS Assay: An ROS assay was carried out using an ELISA kit (commercially available from Cell Biolabs Inc.).\nas §3"}, "[5]": {"system": "RAW 264.7 cells", "test": "Cell viability (MTT assay) in RAW 264.7 cells", "format": "cell-based, mouse", "conditions": "up to 4 mg/mL", "protocol": "As mouse macrophages, RAW 264.7 macrophages were cultured in a DMEM medium supplemented with 10% FBS. […] of the medium was treated with MMPP, and then stabilized for an hour.\nAn MTT reagent was added at a concentration of 0.5 mg/mL, and the cells were cultured at 37° C. in an incubator. After the medium was completely removed when 70% of the cells formed crystals, […] of DMSO was added to dissolve the crystals. Subsequently, the optical density was measured at 550 nm.\nMorphological changes of the cells were observed under a microscope, and the cell viability was determined using an MTT assay."}, "[6]": {"system": "STAT3", "test": "STAT3 phosphorylation in LPS-treated RAW 264.7 cells", "format": "cell-based, mouse", "protocol": "12. Western blotting assay: A whole cell lysate, a cytosolic extract, and a nuclear extract were obtained. SDS-PAGE and Western blotting assays were carried out as disclosed in published Documents 1 and 2. Simply speaking, the cells were seeded in a 6-well plate at a density of 5×10^5 cells/well, and cultured for 24 hours. Thereafter, the cells were treated with MMPP or DMSO for 24 hours. After the treatment, the cells were washed twice with PBS, and then lyzed. Proteins of the lyzed cells were separated on 10 to 15% SDS-PAGE. The proteins were transferred to a PVDF membrane, and the PVDF membrane was blocked at room temperature for 2.5 hours in a TB S/T buffer containing 5% skim milk. The membrane to which the proteins were transferred was analyzed using, as primary antibodies, murine monoclonal antibodies against Cdk2, Cdk4, Cdk6, cyclin B1, cyclin D1, cyclin E1, Bcl-2, Bax, caspase-3, caspase-8, STAT3, phspho-STAT3, (3-actin, and histone hl. Expression of the proteins was visualized using a chemiluminescence reagent (Amersham Pharmacia Biotech, Inc., Buckinghamshire, UK), and measured using a digital chemiluminescence imaging system equipped with a CCD camera (Fusion-FX, Fisher BioTech, Ltd., Wembley, Australia). […]"}, "[7]": {"system": "RAW 264.7 cells", "test": "Nitrite assay (NO generation) in LPS-induced RAW 264.7 cells", "format": "cell-based, mouse", "conditions": "LPS (1 µg/mL) and MMPP (0 to 4 µg/mL)", "protocol": "6. Nitrite assay: RAW 264.7 cells were added to a 96-well plate at a density of 1×10^4 cells/well, and LPS […] and TNF-α (10 ng/mL) were added or not added for 24 hours in the presence or absence of various concentrations of MMPP. Accumulation of nitrites in a supernatant was analyzed using a nitric oxide assay kit commercially available from iNtRON Biotechnology (Seongnam, Korea).\nas §2"}},
  "data": [
    {"smiles": "COc1ccc(C/C=C/c2ccc(O)c(OC)c2)cc1", "note": "[MMPP, 2-methoxy-4-(3-(4-methoxyphenyl)prop-1-en-1-yl)phenol]", "values": [
      {"measurement": "iNOS luciferase activity", "setting": "[1]", "result": "reduced in a concentration-dependent manner"},
      {"measurement": "LPS-induced STAT3 luciferase activity", "setting": "[2]", "result": "inhibited"},
      {"measurement": "NO and ROS generations", "setting": "[3]", "result": "reduced"},
      {"measurement": "STAT3 and NF-κB activities", "setting": "[3]", "result": "reduced"},
      {"measurement": "iNOS and COX2 expression", "setting": "[3]", "result": "reduced"},
      {"measurement": "PGE2 expression", "setting": "[4]", "result": "inhibited"},
      {"measurement": "ROS expression", "setting": "[4]", "result": "inhibited"},
      {"measurement": "level of pro-inflammatory cytokines (TNF-α, IL-6 and IL-1)", "setting": "[4]", "result": "inhibited"},
      {"measurement": "toxicity", "setting": "[5]; RAW 264.7 cells", "result": "no toxicity"},
      {"measurement": "viability of the LPS-induced RAW 264.7 cells", "setting": "[5]", "result": "not affected"},
      {"measurement": "LPS-induced phosphorylation of STAT3", "setting": "[6]", "result": "inhibited"},
      {"measurement": "NO generation", "setting": "[7]", "result": "reduced in a concentration-dependent manner"}
    ]}
  ]
}
